Reference: patent US10654848B1, “Neutrophil inflammation inhibitor and uses thereof” (Chang Gung University of Science and Technology, priority 2018, dated 2020)

Assays:
BALB/c mice [1] = assay: LPS-induced acute lung injury (ALI) model in mice; type: in vivo, mouse; settings: 20 mg/Kg intravenous 1 hr before intratracheal LPS, 5 hrs
Protocol: (§1) Male BALB/c mice aged 7-8 weeks were purchased from BioLASCO (Taipei, Taiwan) and maintained in a room with 12 hr light/dark cycles. Standard laboratory chow and water were available ad libitum. All animal experimental procedures were performed in accordance with guidelines and approved by the Institutional Animal Care and Use Committee of Chang Gung University.
Mice were pre-treated with a candidate compound (e.g., HKI-4971), which was dissolved in 50 μl saline solution containing 10% DMSO and 20% Kolliphor EL (Sigma-Aldrich, USA), by intravenous injection. […]
Lung tissues were homogenized in PBS (50 Mm, pH 6.0) containing 0.5% (w/v) hexadecyltrimethylammonium bromide (HETAB) (Sigma-Aldrich, USA) by using the MagNA Lyser Instrument (Roche, Germany), and was further centrifuged at 12,000×g for 20 min at 4° C. to remove the insoluble material. The peroxidase activity was measured as the oxidation of o-Dianisidine dihydrochloride (Sigma-Aldrich, USA). […] The absorption was determined spectrophotometrically at 405 nm. […]
In this example, the Gram-negative bacterial endotoxin LPS induced ALI in mice was employed to mimic ARDS in human, and the effect of HKI-4971 was evaluated. […]

human neutrophils = assay: Elastase release in fMLF/CB-activated human neutrophils (MeO-Suc-Ala-Ala-Pro-Val-p-nitroanilide substrate); type: cell-based; settings: Neutrophil, neutrophils in response to fMLF, Table 2, read-out: IC50 for suppressing elastase release
Protocol: Human neutrophils were obtained in lipopolysaccharide-free conditions by means of dextran sedimentation and Ficoll centrifugation.
Methoxysuccinyl-Ala-Ala-Pro-Val-p-nitroanilide was employed as the elastase substrate for the determination of elastase release. Briefly, after supplementation with Methoxysuccinyl-Ala-Ala-Pro-Val-p-nitroanilide (100 μM), neutrophils (6×10^5/mL) were equilibrated at 37° C. for 2 min and incubated with a candidate compound at various concentrations for 5 min. Cells were then activated with fMLF (0.1 μM) for 10 min in the pre-process of CB (0.5 μg/mL) for 3 min, and changes in absorbance at 405 nm were continuously monitored to evaluate elastase release. Results are expressed as the percentage of elastase release in the drug-free control group, DMSO.

BALB/c mice [2] = assay: Liver and kidney function (ALT, AST, BUN, creatinine) in blood of imiquimod-induced mice; type: in vivo, mouse; settings: blood samples, 20 mg/kg intraperitoneal, alone or with IMQ, 7 days; FIG. 3 (n=3)
Protocol: In this example, the effect of HKI-4971 (or compound 13) on the development of psoriasis was investigated using the well-established psoriasis animal model, in which imiquimod (IMQ) was used to induce psoriasis-like skin inflammation. Briefly, BALB/c mice are pre-treated by intraperitoneal injection of HKI-4971 (20 mg/kg) for 30 min before 5% IMQ cream was topically administered onto the back of the mice every day for 7 days. Then, skin samples taken from these animals were subjected to microscopy examination and immunohistochemistry staining, while blood samples were subjected to analysis for liver and kidney functions. Results are depicted in FIGS. 1 to 3.
Blood samples taken from IMQ- or IMQ+HKI-4971 treated animals were analyzed for the levels of alanine aminotransferase and aspartate transaminase, which were used as indicators for assessing liver function; and the levels of blood […] nitrogen (BUN) and creatinine (CRE), which were used as indicators for assessing the kidney function. Results are illustrated in FIG. 3.

BALB/c mice [3] = assay: Imiquimod-induced psoriasis-like skin inflammation in mice; type: in vivo, mouse; settings: 20 mg/kg intraperitoneal, 30 min before 5% IMQ cream, daily for 7 days
Protocol: as §1
Male BALB/c mice aged 7-8 weeks were used for the development of the imiquimod-induced psoriatic-like plaque model. The dorsal skin of the mice were shaved and received a daily topical dose of 62.5 mg of 5% imiquimod (IMQ) cream (Aldara, MEDA Pharma, Sweden) with or without a test compound (e.g., HKI-4971) treatment by intraperitoneal injection for 7 consecutive days.
Tissue samples were fixed in 10% neutral buffered formalin and embedding in paraffin blocks. Sections of the samples were prepared at 5 μm thickness and stained with hematoxylin and eosin (H&E). For immunohistochemistry staining, the sections were incubated with primary antibodies against Ly6g, MPO, and ki67 then the secondary antibody was applied for the detection of the primary antibody according to the manufacturer's instructions of the SuperPicture Polymer Detection Kit (Thermo Fisher, USA). Finally, the section slides were subsequently stained with DAB chromogen and counterstained with hematoxylin. […]

For Cn1nc(N)c2c(Nc3ccc(O)cc3)nc3ccccc3c21 [Compound 13, 4-(4-Hydroxyanilino)-1-methyl-1H-pyrazolo[4,3-c]quinolin-3-amine], the “MPO activity in lung tissues” value (BALB/c mice [1]; FIG. 4(A) (n=3)) was “suppressed”, the “LPS-induced neutrophil infiltration and lung injury (H&E, Ly6g and MPO staining of lung sections)” value (BALB/c mice [1]; FIG. 4(B)) was “significantly alleviated” and the IC50 (human neutrophils) was 32 ± 17 nM. For the same compound, the “Liver function (alanine aminotransferase, aspartate transaminase) and kidney function (BUN, creatinine)” value (BALB/c mice [2]) was “did not result in significant damage”, the “Severity or progression of IMQ-induced psoriasis” value (BALB/c mice [3]; FIG. 1) was “reduce the severity or progression” and the “Immunostaining of skin: markers for cell proliferation (ki-67) and for neutrophils (Ly6g and MPO)” value (BALB/c mice [3]; FIG. 2) was “reduced”.
